These results are taken from ChEMBL document CHEMBL1201862, “PubChem BioAssay data set” (2004).

Active and inactive are the calls of the source. Bounds are passed on as bounds.

Holding throughout (type): functional
In assay [1] the target is T1, Cannabinoid receptor 1 (Homo sapiens, UniProt P21554). The assay can be described thus: SAR analysis of antagonists of the Cannabinoid Receptor 1 using an Image-Based Assay - Set 2. [Related pubchem assays (depositor defined):AID2013, AID2026].
The target of assay [2] is T2, G-protein coupled receptor 35 (Homo sapiens, UniProt Q9HC97). Put plainly: SAR analysis of Agonists of the GPR35 Receptor using an Image-Based Assay - Set 2. [Related pubchem assays (depositor defined):AID2013, AID2026].
T2 sequence (Q9HC97 whole entry): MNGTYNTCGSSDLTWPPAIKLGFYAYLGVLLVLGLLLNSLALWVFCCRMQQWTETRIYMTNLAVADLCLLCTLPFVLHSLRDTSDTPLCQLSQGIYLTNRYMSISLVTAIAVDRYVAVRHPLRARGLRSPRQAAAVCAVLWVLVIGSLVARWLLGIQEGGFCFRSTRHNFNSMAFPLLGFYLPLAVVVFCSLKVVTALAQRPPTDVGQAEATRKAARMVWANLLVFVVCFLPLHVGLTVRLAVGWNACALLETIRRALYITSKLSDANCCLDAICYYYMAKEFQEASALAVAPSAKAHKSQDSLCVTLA
Assay [3] addresses T3, Cannabinoid receptor 2 (Homo sapiens, UniProt P34972). Put plainly: SAR analysis of antagonists of the Cannabinoid Receptor 2 using an Image-Based Assay. [Related pubchem assays (depositor defined):AID2013, AID2026].
For assay [4], the target named is T1, Cannabinoid receptor 1. The assay can be described thus: SAR analysis of agonists of the Cannabinoid Receptor 1 using an Image-Based Assay - Set 2. [Related pubchem assays (depositor defined):AID2013, AID2026].
Assay [5] addresses T2, G-protein coupled receptor 35. Put plainly: SAR analysis of Antagonists of the GPR35 Receptor using an Image-Based Assay - Set 3. [Related pubchem assays (depositor defined):AID2013, AID2026].
Assay [6] addresses G-protein coupled receptor 55 (Homo sapiens, UniProt Q9Y2T6). The assay can be described thus: GPR55 antagonist potency of analogs, SAR follow-up, imaging, U2OS, beta-arrestin-GFP, LPI agonist, set 2 (AID 2820).
For assay [7], the target named is T3, Cannabinoid receptor 2. The assay can be described thus: SAR analysis of agonists of the Cannabinoid Receptor 2 using an Image-Based Assay. [Related pubchem assays (depositor defined):AID2013, AID2026].
Another assay addresses T4, Hexokinase HKDC1 (Homo sapiens, UniProt Q2TB90).
T4 sequence (Q2TB90 whole entry): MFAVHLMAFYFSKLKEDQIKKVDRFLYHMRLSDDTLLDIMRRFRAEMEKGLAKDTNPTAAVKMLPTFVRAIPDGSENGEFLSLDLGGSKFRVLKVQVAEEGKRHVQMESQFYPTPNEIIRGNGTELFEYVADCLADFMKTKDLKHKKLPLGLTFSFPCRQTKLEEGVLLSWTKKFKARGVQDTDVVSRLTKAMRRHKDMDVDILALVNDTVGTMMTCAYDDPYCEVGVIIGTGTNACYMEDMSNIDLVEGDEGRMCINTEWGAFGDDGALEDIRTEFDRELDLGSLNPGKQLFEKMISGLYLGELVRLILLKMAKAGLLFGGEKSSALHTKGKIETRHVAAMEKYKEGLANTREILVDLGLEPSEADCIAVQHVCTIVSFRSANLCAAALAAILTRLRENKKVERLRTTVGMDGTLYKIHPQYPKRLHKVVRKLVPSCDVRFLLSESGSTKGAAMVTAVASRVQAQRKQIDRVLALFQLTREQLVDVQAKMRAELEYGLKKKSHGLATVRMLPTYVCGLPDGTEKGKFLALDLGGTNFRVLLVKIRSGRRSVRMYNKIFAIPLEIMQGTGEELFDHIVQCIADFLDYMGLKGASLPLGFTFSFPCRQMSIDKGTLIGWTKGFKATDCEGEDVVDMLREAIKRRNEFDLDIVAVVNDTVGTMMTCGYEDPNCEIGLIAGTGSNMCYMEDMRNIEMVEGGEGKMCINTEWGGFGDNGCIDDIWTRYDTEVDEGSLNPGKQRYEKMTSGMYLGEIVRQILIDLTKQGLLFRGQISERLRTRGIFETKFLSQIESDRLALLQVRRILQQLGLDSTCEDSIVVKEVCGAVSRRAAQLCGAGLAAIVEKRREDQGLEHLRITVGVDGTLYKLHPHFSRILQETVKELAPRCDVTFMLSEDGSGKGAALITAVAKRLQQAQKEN
Put plainly: HKDC1 hexokinase activators, dose response, biochemical, W721R variant (AID 504730).

For another assay, the target named is T5, Hexokinase-1 (Homo sapiens, UniProt P19367).
T5 sequence (P19367 whole entry): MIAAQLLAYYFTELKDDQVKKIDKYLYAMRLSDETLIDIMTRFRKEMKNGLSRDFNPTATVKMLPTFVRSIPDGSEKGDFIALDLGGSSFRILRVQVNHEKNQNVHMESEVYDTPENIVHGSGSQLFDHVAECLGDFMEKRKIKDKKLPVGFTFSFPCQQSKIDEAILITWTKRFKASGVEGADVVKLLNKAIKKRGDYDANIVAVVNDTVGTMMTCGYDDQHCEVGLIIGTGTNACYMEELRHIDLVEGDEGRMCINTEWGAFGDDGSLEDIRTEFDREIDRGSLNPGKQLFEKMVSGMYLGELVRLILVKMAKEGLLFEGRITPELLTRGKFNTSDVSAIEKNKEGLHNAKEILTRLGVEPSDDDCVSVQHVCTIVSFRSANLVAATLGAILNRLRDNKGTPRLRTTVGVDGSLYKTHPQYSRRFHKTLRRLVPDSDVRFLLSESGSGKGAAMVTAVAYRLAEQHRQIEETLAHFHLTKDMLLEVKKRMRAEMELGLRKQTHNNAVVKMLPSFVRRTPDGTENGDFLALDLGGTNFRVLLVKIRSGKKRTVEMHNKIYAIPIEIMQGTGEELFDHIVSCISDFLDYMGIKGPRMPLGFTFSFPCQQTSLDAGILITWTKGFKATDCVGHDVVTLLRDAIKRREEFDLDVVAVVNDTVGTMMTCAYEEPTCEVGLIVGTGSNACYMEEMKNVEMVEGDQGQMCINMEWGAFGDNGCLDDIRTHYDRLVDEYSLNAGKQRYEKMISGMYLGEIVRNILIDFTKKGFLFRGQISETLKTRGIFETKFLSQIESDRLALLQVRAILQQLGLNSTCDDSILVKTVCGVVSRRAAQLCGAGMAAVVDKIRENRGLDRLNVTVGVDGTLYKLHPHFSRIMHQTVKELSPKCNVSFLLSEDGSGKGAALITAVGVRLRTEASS
Put plainly: hexokinase 1 activators, dose response, selectivity assay for HKDC1 activator project, biochemical (AID 504762).

Assay [8] addresses Intestinal-type alkaline phosphatase (Mus musculus, UniProt P24822). Put plainly: PubChem AID 488874.
A short description of assay [9]: Luminescence Cell-Based Dose Retest to Confirm Inhibitors of Cancer Stem Cells. [Related pubchem assays (depositor defined):AID2717, AID2721]. Particulars: Homo sapiens.
Assay [10] concerns the target T6, Intestinal-type alkaline phosphatase (Homo sapiens, UniProt P09923). The assay can be described thus: human intestinal alkaline phosphatase activators, dose response, biochemical, luminescence, uHTS hits (AID 463120).
The target in assay [11] is T6, Intestinal-type alkaline phosphatase. The assay can be described thus: human IAP activators, dose response, biochemical, luminescent, uHTS hits, set 2 (AID 488817).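 Further: potency of activators that raise enzyme activity.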
The target of assay [12] is T7, Alkaline phosphatase, tissue-nonspecific isozyme (Homo sapiens, UniProt P05186).
T7 sequence (P05186 whole entry): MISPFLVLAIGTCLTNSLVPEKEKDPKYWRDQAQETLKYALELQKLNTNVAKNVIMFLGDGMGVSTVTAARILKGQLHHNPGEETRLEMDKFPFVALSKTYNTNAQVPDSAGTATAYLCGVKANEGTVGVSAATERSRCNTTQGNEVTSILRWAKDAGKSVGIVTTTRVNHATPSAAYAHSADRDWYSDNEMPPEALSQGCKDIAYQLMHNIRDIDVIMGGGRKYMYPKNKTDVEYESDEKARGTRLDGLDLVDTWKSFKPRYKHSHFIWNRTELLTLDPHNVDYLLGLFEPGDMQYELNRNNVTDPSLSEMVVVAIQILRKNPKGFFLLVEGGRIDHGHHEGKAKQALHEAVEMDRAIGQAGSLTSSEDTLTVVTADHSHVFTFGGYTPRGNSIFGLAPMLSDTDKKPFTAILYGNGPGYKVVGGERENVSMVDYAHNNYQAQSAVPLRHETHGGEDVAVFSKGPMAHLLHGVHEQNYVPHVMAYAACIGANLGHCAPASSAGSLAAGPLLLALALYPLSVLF
Put plainly: TNAP enzyme activators, dose response, selectivity assay for human IAP activator project, biochemical, TNAP isozyme, human IAP uHTS hits (AID 488886).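 Further: potency of compounds raising TNAP activity as a selectivity check on IAP activators.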
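Wherever AC50 is given: cells exposed to compound for roughly 70 hours or longer before luminescence read.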

T3 sequence (P34972 whole entry): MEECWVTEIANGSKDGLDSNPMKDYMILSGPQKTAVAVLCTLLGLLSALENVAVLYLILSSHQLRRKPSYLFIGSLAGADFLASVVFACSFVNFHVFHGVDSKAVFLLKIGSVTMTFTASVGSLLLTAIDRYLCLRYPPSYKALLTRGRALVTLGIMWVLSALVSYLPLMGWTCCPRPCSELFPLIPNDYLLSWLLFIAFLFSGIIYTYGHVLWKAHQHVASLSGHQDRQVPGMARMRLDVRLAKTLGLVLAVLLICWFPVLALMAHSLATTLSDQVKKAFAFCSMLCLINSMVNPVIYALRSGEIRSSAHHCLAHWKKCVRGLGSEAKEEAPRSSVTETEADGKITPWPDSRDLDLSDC
T1 sequence (P21554 whole entry): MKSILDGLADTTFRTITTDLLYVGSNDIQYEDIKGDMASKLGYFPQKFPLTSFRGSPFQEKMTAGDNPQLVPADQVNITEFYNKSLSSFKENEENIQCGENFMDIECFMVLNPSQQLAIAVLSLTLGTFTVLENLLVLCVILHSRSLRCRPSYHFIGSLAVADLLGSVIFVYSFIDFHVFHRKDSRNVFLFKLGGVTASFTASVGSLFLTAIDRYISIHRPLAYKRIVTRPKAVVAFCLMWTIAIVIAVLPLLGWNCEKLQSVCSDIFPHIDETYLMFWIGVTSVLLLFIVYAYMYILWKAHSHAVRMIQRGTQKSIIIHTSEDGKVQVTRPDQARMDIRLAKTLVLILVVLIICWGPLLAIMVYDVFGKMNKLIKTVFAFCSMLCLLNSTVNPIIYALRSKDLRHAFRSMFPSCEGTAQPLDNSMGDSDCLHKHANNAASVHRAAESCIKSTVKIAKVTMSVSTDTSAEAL
T6 sequence (P09923 whole entry): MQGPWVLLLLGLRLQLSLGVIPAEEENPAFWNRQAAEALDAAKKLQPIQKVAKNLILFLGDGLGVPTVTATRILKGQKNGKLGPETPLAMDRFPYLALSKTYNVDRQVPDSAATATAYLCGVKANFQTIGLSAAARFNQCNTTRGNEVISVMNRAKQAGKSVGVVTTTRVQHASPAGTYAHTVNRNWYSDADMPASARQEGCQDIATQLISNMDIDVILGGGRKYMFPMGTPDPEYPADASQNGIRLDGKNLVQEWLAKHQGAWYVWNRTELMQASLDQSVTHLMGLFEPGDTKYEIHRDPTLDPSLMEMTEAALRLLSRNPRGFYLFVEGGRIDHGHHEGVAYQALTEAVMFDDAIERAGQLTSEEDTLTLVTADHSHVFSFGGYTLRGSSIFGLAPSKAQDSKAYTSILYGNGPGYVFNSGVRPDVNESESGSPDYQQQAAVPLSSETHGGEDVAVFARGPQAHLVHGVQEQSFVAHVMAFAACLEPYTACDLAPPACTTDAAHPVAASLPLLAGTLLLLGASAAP
Chain of Intestinal-type alkaline phosphatase (Mus musculus, UniProt P24822) (P24822 whole entry): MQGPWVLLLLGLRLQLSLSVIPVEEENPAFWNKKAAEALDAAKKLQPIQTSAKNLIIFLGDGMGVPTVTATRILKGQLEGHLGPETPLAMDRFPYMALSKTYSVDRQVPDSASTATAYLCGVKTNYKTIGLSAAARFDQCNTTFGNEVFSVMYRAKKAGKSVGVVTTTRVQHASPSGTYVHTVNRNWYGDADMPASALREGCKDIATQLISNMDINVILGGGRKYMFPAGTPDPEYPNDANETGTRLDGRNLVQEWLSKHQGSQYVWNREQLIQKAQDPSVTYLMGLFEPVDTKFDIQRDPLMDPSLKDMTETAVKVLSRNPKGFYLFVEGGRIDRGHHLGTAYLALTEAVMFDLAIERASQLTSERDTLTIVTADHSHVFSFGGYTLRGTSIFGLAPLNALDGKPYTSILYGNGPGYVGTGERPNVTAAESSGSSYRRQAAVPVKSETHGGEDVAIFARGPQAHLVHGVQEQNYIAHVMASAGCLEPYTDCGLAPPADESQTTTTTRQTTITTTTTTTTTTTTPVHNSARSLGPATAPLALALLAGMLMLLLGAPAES
Chain of G-protein coupled receptor 55 (Q9Y2T6 whole entry): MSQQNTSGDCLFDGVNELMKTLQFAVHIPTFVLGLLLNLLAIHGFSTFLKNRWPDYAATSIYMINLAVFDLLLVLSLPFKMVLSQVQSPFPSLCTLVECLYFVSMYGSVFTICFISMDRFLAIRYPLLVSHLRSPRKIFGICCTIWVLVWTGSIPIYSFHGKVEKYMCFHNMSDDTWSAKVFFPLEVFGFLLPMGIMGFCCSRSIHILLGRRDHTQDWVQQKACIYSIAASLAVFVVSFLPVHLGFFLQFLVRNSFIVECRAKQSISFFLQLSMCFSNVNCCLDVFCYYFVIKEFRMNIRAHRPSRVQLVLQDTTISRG

Turning to `COc1ccc(CNCCC(c2ccccc2)c2ccc3c(c2)OCO3)cc1` (centres undefined), the IC50 at Cannabinoid receptor 1 [1] is 5.82 µM (active); on Cannabinoid receptor 2 [3], > 32 µM (inactive); in [5] it was > 32 µM (inactive); in assay [6], 0.917 µM (active). Further, the EC50 (in assay [2]; on Cannabinoid receptor 1 [4]; on Cannabinoid receptor 2 [7]) was > 32 µM (inactive) in each case.
For the compound `Cc1ccc(/N=C2\C(=S)N(c3ccc(C)cc3)C(=N)N2/N=C/c2ccc(Cl)cc2)cc1`, the EC50 on Hexokinase HKDC1 and on Hexokinase-1 was > 80 µM (inactive) each time.
In the case of `O=C(Nc1ccon1)c1nc[nH]c1C(=O)NCc1ccccc1`, the IC50 in assay [8] was 38.8 µM (active). Further, in assay [9], the AC50 is 0.76 µM (active). Also, the values for the EC50 in assay [10], in [11] and in [12] were 14.2 µM (active), 13.9 µM (active) and 16.4 µM (active), respectively.
